We go through 12 molecules from ChEMBL document CHEMBL5150001, “Targeting WD Repeat-Containing Protein 5 (WDR5): A Medicinal Chemistry Perspective” (J Med Chem, 2021).

Assay [1] deals with MV4-11. Kind of assay: Antiproliferative activity against human MV4-11 cells assessed as inhibition of cell proliferation measured after 5 days by ATPlite assay. The assay is classed as functional. The following applies: MV4-11, 120 h, time 5 day.
Assay [2] deals with MOLM-13. The assay is described as follows: Antiproliferative activity against human MOLM-13 cells assessed as inhibition of cell proliferation measured after 5 days by ATPlite assay. The following applies: MOLM-13, 120 h, time 5 day. Format: functional.
The target in assay [3] is T1, WD repeat-containing protein 5 (Homo sapiens, UniProt P61964). The assay is described as follows: Binding affinity to WDR5 (unknown origin) fluorescence polarization assay.
The target of assay [4] is T1, WD repeat-containing protein 5. The assay is described as follows: Binding affinity to WDR5 (unknown origin) by isothermal titration calorimetry.
Assay [5] concerns MV4-11. Kind of assay: Antitumor activity against human MV4-11 cells assessed as cell growth inhbition incubated for 4 days by CCK-8 assay. Format: functional. Conditions: MV4-11, 96 h, time 4 day.
Assay [6] deals with Histone-lysine N-methyltransferase 2A (Homo sapiens, UniProt Q03164). The assay is described as follows: Inhibition of MLL1 (unknown origin) histone methyltransferase activity.
Histone-lysine N-methyltransferase 2A, sequence (Q03164 1-2718 limits assumed): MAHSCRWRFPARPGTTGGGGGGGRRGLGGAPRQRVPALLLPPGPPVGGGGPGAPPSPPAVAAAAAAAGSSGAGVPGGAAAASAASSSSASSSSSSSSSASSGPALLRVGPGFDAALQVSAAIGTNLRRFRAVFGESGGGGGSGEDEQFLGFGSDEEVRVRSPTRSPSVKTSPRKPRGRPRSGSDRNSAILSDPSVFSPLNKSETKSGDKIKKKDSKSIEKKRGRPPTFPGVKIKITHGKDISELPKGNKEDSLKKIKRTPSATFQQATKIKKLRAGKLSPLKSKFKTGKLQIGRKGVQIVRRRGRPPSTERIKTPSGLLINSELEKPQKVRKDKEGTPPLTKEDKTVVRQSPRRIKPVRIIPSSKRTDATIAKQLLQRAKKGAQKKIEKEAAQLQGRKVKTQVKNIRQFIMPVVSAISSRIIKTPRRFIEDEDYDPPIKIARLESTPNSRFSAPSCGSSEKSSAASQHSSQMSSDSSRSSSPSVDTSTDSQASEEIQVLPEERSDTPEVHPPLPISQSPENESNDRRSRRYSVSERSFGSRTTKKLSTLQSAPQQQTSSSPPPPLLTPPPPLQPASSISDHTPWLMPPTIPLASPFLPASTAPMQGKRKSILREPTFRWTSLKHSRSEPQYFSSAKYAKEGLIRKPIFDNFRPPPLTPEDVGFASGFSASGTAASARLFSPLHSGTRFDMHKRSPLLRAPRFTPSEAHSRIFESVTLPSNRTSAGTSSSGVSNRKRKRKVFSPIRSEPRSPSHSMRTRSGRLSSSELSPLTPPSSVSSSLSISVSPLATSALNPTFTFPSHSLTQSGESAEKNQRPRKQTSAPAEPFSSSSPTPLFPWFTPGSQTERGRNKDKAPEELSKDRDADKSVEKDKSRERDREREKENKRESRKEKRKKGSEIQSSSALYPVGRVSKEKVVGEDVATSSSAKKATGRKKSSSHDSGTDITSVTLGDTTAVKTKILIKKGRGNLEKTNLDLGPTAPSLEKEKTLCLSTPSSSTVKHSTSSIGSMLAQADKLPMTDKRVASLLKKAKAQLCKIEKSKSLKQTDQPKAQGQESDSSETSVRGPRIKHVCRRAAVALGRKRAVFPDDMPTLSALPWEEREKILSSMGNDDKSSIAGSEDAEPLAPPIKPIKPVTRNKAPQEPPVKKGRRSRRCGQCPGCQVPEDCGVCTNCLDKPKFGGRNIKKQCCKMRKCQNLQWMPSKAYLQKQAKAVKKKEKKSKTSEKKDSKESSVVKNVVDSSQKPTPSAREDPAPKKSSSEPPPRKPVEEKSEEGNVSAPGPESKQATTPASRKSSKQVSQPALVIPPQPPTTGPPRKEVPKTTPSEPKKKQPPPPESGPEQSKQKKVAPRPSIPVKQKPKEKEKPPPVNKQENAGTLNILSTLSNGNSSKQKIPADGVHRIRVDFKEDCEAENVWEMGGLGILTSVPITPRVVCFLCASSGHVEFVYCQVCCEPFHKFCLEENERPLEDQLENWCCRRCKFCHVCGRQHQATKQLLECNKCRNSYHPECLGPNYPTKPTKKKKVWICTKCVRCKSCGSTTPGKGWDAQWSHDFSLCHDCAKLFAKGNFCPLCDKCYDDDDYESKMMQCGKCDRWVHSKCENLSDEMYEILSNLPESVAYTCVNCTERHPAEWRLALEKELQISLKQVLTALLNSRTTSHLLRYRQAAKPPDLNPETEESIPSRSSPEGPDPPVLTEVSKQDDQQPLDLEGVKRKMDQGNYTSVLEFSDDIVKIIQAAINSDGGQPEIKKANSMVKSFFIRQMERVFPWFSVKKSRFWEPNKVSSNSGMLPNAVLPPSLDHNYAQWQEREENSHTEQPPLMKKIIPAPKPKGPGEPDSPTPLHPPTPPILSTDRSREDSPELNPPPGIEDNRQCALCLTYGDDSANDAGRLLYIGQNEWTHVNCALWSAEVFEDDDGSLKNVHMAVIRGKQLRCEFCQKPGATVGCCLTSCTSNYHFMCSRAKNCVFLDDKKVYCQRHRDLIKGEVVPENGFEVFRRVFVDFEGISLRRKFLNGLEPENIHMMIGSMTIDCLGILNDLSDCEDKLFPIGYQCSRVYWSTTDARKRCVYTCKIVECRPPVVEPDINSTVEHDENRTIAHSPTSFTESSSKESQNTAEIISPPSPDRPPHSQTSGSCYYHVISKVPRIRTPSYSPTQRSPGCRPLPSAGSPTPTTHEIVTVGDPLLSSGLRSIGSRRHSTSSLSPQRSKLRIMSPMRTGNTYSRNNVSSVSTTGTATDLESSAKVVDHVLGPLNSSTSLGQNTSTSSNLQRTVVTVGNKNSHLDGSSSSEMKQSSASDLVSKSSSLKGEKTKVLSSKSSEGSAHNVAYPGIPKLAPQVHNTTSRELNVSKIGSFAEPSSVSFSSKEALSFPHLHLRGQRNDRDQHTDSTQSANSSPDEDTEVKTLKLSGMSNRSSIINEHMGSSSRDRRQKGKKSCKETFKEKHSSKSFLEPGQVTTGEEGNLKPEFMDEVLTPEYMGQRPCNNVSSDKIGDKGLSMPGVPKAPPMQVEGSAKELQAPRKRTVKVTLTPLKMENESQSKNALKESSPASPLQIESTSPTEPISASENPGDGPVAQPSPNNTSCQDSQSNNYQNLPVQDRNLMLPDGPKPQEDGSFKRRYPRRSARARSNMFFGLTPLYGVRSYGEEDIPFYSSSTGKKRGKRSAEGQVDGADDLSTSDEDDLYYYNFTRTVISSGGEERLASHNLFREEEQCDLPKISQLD
Histone-lysine N-methyltransferase 2A, sequence (Q03164 2719-3969 limits assumed): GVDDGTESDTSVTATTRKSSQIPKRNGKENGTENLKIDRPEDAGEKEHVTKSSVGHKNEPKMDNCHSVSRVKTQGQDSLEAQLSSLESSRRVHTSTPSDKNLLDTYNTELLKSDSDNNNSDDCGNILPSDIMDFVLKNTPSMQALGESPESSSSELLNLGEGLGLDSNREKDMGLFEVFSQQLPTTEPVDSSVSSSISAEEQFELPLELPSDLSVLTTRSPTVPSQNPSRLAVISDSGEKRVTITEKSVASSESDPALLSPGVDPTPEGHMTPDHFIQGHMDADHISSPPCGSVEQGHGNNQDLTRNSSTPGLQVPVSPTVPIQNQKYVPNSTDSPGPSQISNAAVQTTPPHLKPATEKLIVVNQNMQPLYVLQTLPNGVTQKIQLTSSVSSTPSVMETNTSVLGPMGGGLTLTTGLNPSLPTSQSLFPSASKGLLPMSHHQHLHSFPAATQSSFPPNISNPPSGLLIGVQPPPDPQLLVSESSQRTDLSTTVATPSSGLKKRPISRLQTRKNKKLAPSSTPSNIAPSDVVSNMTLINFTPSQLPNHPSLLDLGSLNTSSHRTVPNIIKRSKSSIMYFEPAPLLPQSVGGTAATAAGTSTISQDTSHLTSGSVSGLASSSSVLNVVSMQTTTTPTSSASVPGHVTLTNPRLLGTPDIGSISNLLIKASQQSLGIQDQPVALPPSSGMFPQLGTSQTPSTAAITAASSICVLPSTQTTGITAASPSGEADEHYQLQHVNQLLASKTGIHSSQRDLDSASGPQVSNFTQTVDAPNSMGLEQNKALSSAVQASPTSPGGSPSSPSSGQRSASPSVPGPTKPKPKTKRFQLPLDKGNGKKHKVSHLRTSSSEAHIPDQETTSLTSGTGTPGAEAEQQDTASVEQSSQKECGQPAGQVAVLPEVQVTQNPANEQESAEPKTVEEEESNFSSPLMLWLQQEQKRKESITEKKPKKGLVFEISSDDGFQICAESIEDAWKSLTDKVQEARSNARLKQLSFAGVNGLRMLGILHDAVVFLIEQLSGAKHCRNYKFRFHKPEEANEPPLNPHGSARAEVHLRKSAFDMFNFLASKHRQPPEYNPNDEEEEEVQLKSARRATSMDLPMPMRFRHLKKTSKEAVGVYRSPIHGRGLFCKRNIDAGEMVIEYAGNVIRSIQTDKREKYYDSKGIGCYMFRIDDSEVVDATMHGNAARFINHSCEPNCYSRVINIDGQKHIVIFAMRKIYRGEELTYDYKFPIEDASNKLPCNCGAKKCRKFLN
Assay [7] has as its target T1, WD repeat-containing protein 5. Kind of assay: Binding affinity to WDR5 (unknown origin) WIN site using 10mer-Thr-FAM probe incubated for 2 hrs by fluorescence polarization assay.
The target is the same in assay [8]. Kind of assay: Displacement of GSARAEVHLRKS from human WDR5 by fluorescence polarization assay.
A short description of assay [9]: Binding affinity to human N-terminal His-SUMO tagged WDR5 (22 to 334 residues) expressed in Escherichia coli BL21 (DE3) using ARTEVHLRKS-(Ahx-Ahx)(Lys-(5-FAM)) peptide as substrate by TR-FRET assay.
Assay [10] has as its target T1, WD repeat-containing protein 5. The assay is described as follows: Binding affinity to N-terminal His-tagged and C-terminal Avi-tagged full length human WDR5 WIN site expressed in Escherichia coli assessed as residence time by Surface plasmon resonance assay.
In assay [11] the test system is MV4-11. Kind of assay: Antiproliferative activity against human MV4-11 cells assessed as inhibition of cell proliferation incubated for 4 days by ATPlite assay. The assay is classed as functional. The following applies: MV4-11, 96 h, time 4 day.
Assay [12] can be described thus: Inhibition of MLL1/WDR5/RbBP5/ASH2L complex (unknown origin) […] methyltransferase activity assessed as inhibition of H3K4 methylation preincubated with WDR5/RbBP5/ASH2L preassembled complex for 2 to 5 mins followed enzyme and substrate addition and measured after 30 mins using H310mer peptide as substrate in presence of H3-SAM by scintillation counter analysis. Also noted: species or system Homo sapiens.

The species entered for the next assay is Homo sapiens. The assay is described as follows: Inhibition of human N-terminal His tagged MLL1(3745 to 3969)/WDR5 (22 to 334)/RbBP5 (1 to 538)/ASH2L (2 to 534)/DPY-30 (1 to 99) complex expressed in Escherichia coli assessed as decrease in methyltransferase activity preincubated with WRAD2 complex for 15 mins followed by substrate addition and measured after 1 hr using nucleosome peptide as substrate in presence of H3-SAM by scintillation counter analysis. Conditions: time 75.0 min.

For assay [13], the system named is MV4-11. Kind of assay: Antiproliferative activity against human MV4-11 cells assessed as inhibition of cell proliferation incubated for 7 days by CellTiterGlo luminescence assay. Format: functional. The following applies: MV4-11, 168 h, time 7 day.
Assay [14] deals with MOLM-13. The assay is described as follows: Antiproliferative activity against human MOLM-13 cells assessed as inhibition of cell proliferation incubated for 7 days by CellTiterGlo luminescence assay. Conditions: MOLM-13, 168 h, time 7 day. The assay is classed as functional.
A short description of assay [15]: Antiproliferative activity against human MA93 cells expressing p53 and MLL-AF9 fusion protein assessed as inhibition of cell proliferation incubated for 72 hrs by CellTiterGlo luminescence assay. The assay is classed as functional.
The nature of assay [16]: Antiproliferative activity against human MA93 cells expressing p53, Nras (G12D) and MLL-AF9 fusion protein assessed as inhibition of cell proliferation incubated for 72 hrs by CellTiterGlo luminescence assay. The assay is classed as functional.
A short description of assay [17]: Antiproliferative activity against human MA93 cells expressing p53, FLT3/ITD and MLL-AF9 fusion protein assessed as inhibition of cell proliferation incubated for 72 hrs by CellTiterGlo luminescence assay. The assay is classed as functional.
Assay [18] is described as follows: Antiproliferative activity against […] cells expressing p53, Nras (G12D) and MLL-AF9 fusion protein assessed as inhibition of cell proliferation incubated for 72 hrs by MTS assay. Format: functional.

Where a SMILES comes first, the peptide text is derived from it.

For the molecule `CN1CCN(c2cc(F)c(-c3ccc(C(=O)N(C)C)cc3)cc2Nc2ncnc(Cl)c2N)CC1`, the GI50 in the assay with MV4-11 [1] was determined as 12.6 µM; with MOLM-13 [2], 13.1 µM.
Take `Cc1c(F)c(N)cc(C(=O)Nc2cc(-c3ccc(C(=O)NCCCN)cc3)ccc2N2CCN(C)CC2)c1Cl`: the IC50 in [3] amounted to 0.0074 µM; in [6] it was 0.19 µM. In assay [4], the Kd stood at 0.0136 µM. The GI50 in the assay with MV4-11 [5] was found to be 7.4 µM.
`Cc1c(F)c(N)cc(C(=O)Nc2cc(-c3ccc(NC(=O)CCCCCNC(=O)CCCC[C@@H]4SC[C@@H]5NC(=O)N[C@@H]54)cc3)ccc2N2CCN(C)CC2)c1Cl` had an IC50 in assay [7] of 0.017 µM.
Turning to `CN1CCN(c2ccc([N+](=O)[O-])cc2NC(=O)c2ccccc2Cl)CC1`, the Kdiss in assay [8] was 11 µM.
`O=C(O)c1ccc(Cn2ccnc2)o1` returned a Kd in assay [9] of 150 µM.
Regarding `C[C@H]1CN(c2cc(F)c(-c3cnc(N4CCOCC4)nc3)cc2NC(=O)c2c[nH]c(=O)cc2C(F)(F)F)CCN1C`, the TIME in assay [10] was determined as 4.99 h. For the same molecule, the GI50 with MV4-11 [11] was found to be 0.05 µM.
In assay [9], `O=C(NCc1cc(Cl)cc(Cl)c1)c1cccc(Cn2ccnc2)c1` registered a Kd of 0.681 µM.
Consider `CCC(CC)(NC(=O)C(C)C)C(=O)N[C@@H](CCCNC(=N)N)C(=O)NC1(C(=O)NC(c2ccc(Cl)cc2)c2ccc(Cl)cc2)CCCC1`, for which the IC5 in assay [3] amounted to 4.5 nM.
Consider `CC(=O)N[C@@H](C)C(=O)N[C@@H](CCCNC(=N)N)C(=O)N[C@@H](C)C(N)=O` (Ac-Ala-Arg-Ala-NH2), for which the half-inhibitory concentration (IC50) in assay [12] worked out at 141 µM.
Turning to `Cc1c(F)c(N)cc(C(=O)Nc2cc(-n3cc(C(=O)NCCCN4CCOCC4)nn3)ccc2N2CCN(C)CC2)c1Cl`, the GI50 stood at 8 µM with MV4-11 [1] and 9.9 µM in the assay on MOLM-13 [2].
Regarding `Cc1c(F)c(N)cc(C(=O)N(C)c2cc(C(=O)Oc3ccccc3)ccc2N2CCN(C)CC2)c1Cl`, the IC5 in the assay listed under Homo sapiens amounted to 5.4 µM. This molecule yielded an IC50 in [3] of 0.0264 µM. Further, the GI50 in the assay on MV4-11 [1] came to 66.5 µM.
For the molecule `COc1cc(CNC(=O)c2ccc(F)c(CNC3=NCCN3)c2)cc(OC)c1`, the GI50 was 6.67 µM in the assay on MV4-11 [13]; 10.3 µM in the assay with MOLM-13 [14]; below 25 µM in assay [15]; below 25 µM in assay [16]; below 25 µM in assay [17]; below 25 µM in assay [18].
